Measured values as given in patent US11944626B2, “Small molecule inhibitors of ALDH and uses thereof” (The Regents of the University of Michigan, priority 2016, dated 2024).
Counter-ions that a name gives are not always drawn.

What was measured:
ALDH1A1 = target: T1, ALDH1A1 (Homo sapiens, UniProt P00352); experiment: Inhibition of ALDH isoenzymes (NAD(P)H formation at 340 nm, purified recombinant enzyme); format: biochemical; details: for remaining activity at 20 µM: compound at 20 μM, read-out: ALDH1A1 % Control at 20 μM; for IC50: 100-200 nM enzyme, 200 μM NAD+, 100 μM propionaldehyde, pH 7.5, 25° C.
T1 sequence (P00352 1-501): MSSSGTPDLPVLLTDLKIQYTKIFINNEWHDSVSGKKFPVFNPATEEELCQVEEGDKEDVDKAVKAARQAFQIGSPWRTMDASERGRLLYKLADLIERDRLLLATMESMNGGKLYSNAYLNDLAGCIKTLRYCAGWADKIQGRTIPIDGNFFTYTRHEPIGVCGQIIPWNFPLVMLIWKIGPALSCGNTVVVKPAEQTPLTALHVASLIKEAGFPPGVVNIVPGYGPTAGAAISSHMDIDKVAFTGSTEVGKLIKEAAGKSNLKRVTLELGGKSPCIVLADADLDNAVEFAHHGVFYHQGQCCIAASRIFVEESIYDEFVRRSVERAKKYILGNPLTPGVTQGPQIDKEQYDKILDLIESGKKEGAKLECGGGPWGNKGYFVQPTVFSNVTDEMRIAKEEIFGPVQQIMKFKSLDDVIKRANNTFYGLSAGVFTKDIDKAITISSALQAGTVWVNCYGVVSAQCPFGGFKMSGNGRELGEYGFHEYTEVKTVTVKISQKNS

ALDH1A2 = target: T2, ALDH1A2 (Homo sapiens, UniProt O94788); experiment: as above; format: biochemical; details: for remaining activity at 20 µM: compound at 20 μM, read-out: ALDH1A2 % Control at 20 μM; for IC50: 100-200 nM enzyme, 200 μM NAD+, 100 μM propionaldehyde, pH 7.5, 25° C.
T2 sequence (O94788 1-518): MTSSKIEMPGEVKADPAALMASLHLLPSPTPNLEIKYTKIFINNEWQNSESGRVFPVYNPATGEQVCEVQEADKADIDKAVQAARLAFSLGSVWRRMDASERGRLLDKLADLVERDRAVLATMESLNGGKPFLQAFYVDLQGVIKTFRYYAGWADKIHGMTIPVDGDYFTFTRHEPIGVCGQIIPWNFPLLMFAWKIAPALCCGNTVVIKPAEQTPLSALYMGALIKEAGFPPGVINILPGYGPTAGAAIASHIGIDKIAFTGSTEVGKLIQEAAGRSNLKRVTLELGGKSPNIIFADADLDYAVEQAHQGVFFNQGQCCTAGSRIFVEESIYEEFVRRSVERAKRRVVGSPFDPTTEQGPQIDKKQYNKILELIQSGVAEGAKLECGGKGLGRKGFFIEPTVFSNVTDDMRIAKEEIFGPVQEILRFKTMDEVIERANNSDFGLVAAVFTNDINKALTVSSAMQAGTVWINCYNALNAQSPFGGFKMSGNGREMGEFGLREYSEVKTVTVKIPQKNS

ALDH1A3 = target: T3, ALDH1A3 (Homo sapiens, UniProt P47895); experiment: as above; format: biochemical; details: for remaining activity at 20 µM: compound at 20 μM, read-out: ALDH1A3 % Control at 20 μM; for IC50: 100-200 nM enzyme, 200 μM NAD+, 100 μM propionaldehyde, pH 7.5, 25° C.
T3 sequence (P47895 1-512): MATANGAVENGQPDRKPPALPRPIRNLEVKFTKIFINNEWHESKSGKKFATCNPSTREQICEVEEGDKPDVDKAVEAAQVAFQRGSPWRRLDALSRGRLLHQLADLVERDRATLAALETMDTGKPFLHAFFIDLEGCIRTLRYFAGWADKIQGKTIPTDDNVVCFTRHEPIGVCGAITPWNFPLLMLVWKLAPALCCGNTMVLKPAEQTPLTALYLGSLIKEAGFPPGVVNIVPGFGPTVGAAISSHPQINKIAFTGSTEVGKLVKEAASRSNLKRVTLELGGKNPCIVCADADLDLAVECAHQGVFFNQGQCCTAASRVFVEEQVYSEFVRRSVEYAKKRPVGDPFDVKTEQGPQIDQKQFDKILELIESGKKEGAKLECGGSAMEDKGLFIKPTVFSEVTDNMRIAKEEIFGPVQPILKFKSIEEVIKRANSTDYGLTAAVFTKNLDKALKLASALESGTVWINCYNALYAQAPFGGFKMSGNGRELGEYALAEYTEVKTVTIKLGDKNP

ALDH2 = target: T4, ALDH2 (Homo sapiens, UniProt P05091); experiment: as above; format: biochemical; details: compound at 20 μM; read-out: ALDH2 % Control at 20 μM;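 further: run at 25 °C, started by adding substrate after 2 min preincubation, with 100-200 nM ALDH2, 200 µM NAD+, 100 µM propionaldehyde, 1% DMSO in BES buffer pH 7.5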
T4 sequence (P05091 18-517): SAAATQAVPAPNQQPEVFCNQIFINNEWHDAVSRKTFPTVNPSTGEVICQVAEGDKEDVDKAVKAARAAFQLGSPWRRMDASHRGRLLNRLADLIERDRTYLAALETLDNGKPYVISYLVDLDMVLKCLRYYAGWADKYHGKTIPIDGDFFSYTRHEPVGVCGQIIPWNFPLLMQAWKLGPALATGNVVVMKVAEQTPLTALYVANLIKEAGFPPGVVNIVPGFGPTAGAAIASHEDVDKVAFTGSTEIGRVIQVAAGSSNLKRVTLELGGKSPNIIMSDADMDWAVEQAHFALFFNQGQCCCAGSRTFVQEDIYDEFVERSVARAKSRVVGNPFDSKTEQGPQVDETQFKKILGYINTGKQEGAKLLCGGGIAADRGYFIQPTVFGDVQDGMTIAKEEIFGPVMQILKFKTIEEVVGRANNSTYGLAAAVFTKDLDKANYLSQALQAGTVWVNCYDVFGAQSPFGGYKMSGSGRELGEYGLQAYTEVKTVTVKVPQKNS

OVSAHO = OVSAHO Cell Viability; format: cell-based; details: for OVSAHO Cell Viability (30 μM) % CD133 + % ctrl / OVSAHO Cell Viability (50 μM) % CD133 + % ctrl: CD133+ cells; for OVSAHO Cell Viability (30 μM) Total Cell % ctrl / OVSAHO Cell Viability (50 μM) Total Cell % ctrl: total cells

Row | SMILES | remaining activity at 20 µM (ALDH1A1) [%] | remaining activity at 20 µM (ALDH1A2) [%] | remaining activity at 20 µM (ALDH1A3) [%] | remaining activity at 20 µM (ALDH2) [%] | IC50 (ALDH1A1) [nM] | IC50 (ALDH1A2) [nM] | IC50 (ALDH1A3) [nM] | OVSAHO Cell Viability (30 μM) % CD133 + % ctrl (OVSAHO) [% ctrl] | OVSAHO Cell Viability (30 μM) Total Cell % ctrl (OVSAHO) [% ctrl] | OVSAHO Cell Viability (50 μM) % CD133 + % ctrl (OVSAHO) [% ctrl] | OVSAHO Cell Viability (50 μM) Total Cell % ctrl (OVSAHO) [% ctrl]
1 | CCC(Sc1nc2c(cnn2C)c(=O)n1-c1ccccc1)c1ccccc1 (centres unmarked) [Example 70, 1-methyl-5-phenyl-6-((1-phenylpropyl)thio)-1H-pyrazolo[3,4-d]pyrimidin-4(5H)-one] | -5 | -14 | -10 | 90 | – | – | – | 56 | 17 | – | –
2 | O=c1c2cn(CC3CNC3)nc2nc(SCc2cccc(F)c2)n1-c1ccccc1 [Example 68, 3-((6-((3-fluorobenzyl)thio)-4-oxo-5-phenyl-4,5-dihydro-2H-pyrazolo[3,4-d]pyrimidin-2-yl)methyl)azetidin-1-ium sulfate] | 14 | 14 | 10 | 93 | – | – | – | – | 16 | – | –
3 | CC1(Cn2cc3c(=O)n(-c4ccccc4)c(SCc4cccc(F)c4)nc3n2)COC1 [Example 67, 6-((3-fluorobenzyl)thio)-2-((3-methyloxetan-3-yl)methyl)-5-phenyl-2H-pyrazolo[3,4-d]pyrimidin-4(5H)-one] | 7 | 21 | 4 | 97 | – | – | – | 100 | 16 | – | –
4 | Cn1ncc2c(=O)n(-c3ccccc3)c(SCc3cccc(C(=O)C(F)(F)F)c3)nc21 [Example 57, 1-methyl-5-phenyl-6-((3-(2,2,2-trifluoroacetyl)benzyl)thio)-1H-pyrazolo[3,4-d]pyrimidin-4(5H)-one] | – | – | – | 100 | 73 | 1720 | 1750 | 84 | 29 | – | –

Now from value to compound, other results behind:

Row | remaining activity at 20 µM (ALDH1A1) [%] | remaining activity at 20 µM (ALDH1A2) [%] | remaining activity at 20 µM (ALDH1A3) [%] | remaining activity at 20 µM (ALDH2) [%] | IC50 (ALDH1A1) [nM] | IC50 (ALDH1A2) [nM] | IC50 (ALDH1A3) [nM] | SMILES | OVSAHO Cell Viability (30 μM) % CD133 + % ctrl (OVSAHO) [% ctrl] | OVSAHO Cell Viability (30 μM) Total Cell % ctrl (OVSAHO) [% ctrl] | OVSAHO Cell Viability (50 μM) % CD133 + % ctrl (OVSAHO) [% ctrl] | OVSAHO Cell Viability (50 μM) Total Cell % ctrl (OVSAHO) [% ctrl]
5 | – | – | – | 82 | 320 | 400 | 250 | CCn1ncc2c(=O)n(-c3ccccc3)c(SCc3cccc(F)c3)nc21 [Example 14, 1-ethyl-6-((3-fluorobenzyl)thio)-5-phenyl-1H-pyrazolo[3,4-d]pyrimidin-4(5H)-one] | – | – | 39 | 13
6 | – | – | – | 98 | 172 | 600 | 153 | CCn1cc2c(=O)n(-c3ccccc3)c(SCc3cccc(F)c3)nc2n1 [Example 15, 2-ethyl-6-((3-fluorobenzyl)thio)-5-phenyl-2H-pyrazolo[3,4-d]pyrimidin-4(5H)-one] | – | – | 83 | 51
